Values of other authors as cited in patent US20220160668A1, “FORMULATIONS AND METHODS FOR TREATING CONDITIONS OF THE EYE” (Sight Sciences, Inc., priority 2020, published 2022).

Settings: antibiotic level of azithromycin (1%)

## CC[C@H]1OC(=O)[C@H](C)[C@@H](O[C@H]2C[C@@](C)(OC)[C@@H](O)[C@H](C)O2)[C@H](C)[C@@H](O[C@@H]2O[C@H](C)C[C@H](N(C)C)[C@H]2O)[C@](C)(O)C[C@@H](C)CN(C)[C@H](C)[C@@H](O)[C@]1(C)O [azithromycin]
  effect on phase transition temperature of meibum lipids and lipid ordering: can improve the phase transition temperature of meibum lipids and lipid ordering
